The conditions of data set [1]: Liquid; for mass density: 101.33 kPa.
The nature of data set [2]: refractive index (Na D-line) (dimensionless). To be noted: 101.33 kPa, Liquid, Abbe refractometer.

± gives the expanded uncertainty stated by the source.

Consider `Cc1ccccn1` [2-methylpyridine], for which, in data set [1] (298.15 K), the mass density is 939.8 ± 1.5 kg/m3. Besides, the “vapor or sublimation pressure” value in data set [1] (398.05 K) turned out to be 94.7 ± 9.6 kPa. Further, the refractive index in data set [2] (298.15 K) was 1.4984 ± 0.0007.
Take `CC(=O)CC(C)C` [4-methylpentan-2-one]: the mass density in data set [1] (298.15 K) is recorded as 796.3 ± 1.2 kg/m3. In data set [1] (387.15 K), the “vapor or sublimation pressure” value amounted to 94.7 ± 9.6 kPa. For the same compound, the refractive index in data set [2] (298.15 K) stood at 1.3936 ± 0.0007.
As to `C=CC#N` [acrylonitrile], the mass density in data set [1] (298.15 K) worked out at 800.4 ± 1.3 kg/m3. The “vapor or sublimation pressure” value in data set [1] (348.85 K) amounted to 94.7 ± 9.6 kPa. Also, the refractive index in data set [2] (298.15 K) came out at 1.3888 ± 0.0007.
As for `CC(=O)c1ccccc1` [acetophenone], the mass density in data set [1] (293.15 K) is listed as 1028.1 ± 1.3 kg/m3. Besides, in data set [1] (472.25 K), the “vapor or sublimation pressure” value amounted to 94.7 ± 9.6 kPa. Besides, the refractive index in data set [2] (293.15 K) was determined as 1.5342 ± 0.0007.
As for `CC(=O)N(C)C` [N,N-dimethylethanamide], the mass density in data set [1] (298.15 K) came out at 936.3 ± 1.5 kg/m3. The “vapor or sublimation pressure” value in data set [1] (415.35 K) was 94.7 ± 9.6 kPa. Further, in data set [2] (298.15 K), the refractive index is recorded as 1.4356 ± 0.0007.
As to `CCc1ccccc1` [ethylbenzene], in data set [1] (298.15 K), the mass density turned out to be 862.5 ± 1.1 kg/m3. Besides, the “vapor or sublimation pressure” value in data set [1] (407.05 K) is reported as 94.7 ± 9.6 kPa. Besides, the refractive index in data set [2] (298.15 K) stood at 1.4932 ± 0.0007.
As for `CCCCCO` [pentan-1-ol], the mass density in data set [1] (298.15 K) amounted to 815 ± 1 kg/m3. Further, the “vapor or sublimation pressure” value in data set [1] (400.15 K) is on record as 94.7 ± 9.6 kPa. For the same compound, the refractive index in data set [2] (298.15 K) was determined as 1.4085 ± 0.0007.
Regarding `ClCC1CO1` (centres undefined) [1-chloro-2,3-epoxypropane], the mass density in data set [1] (298.15 K) is 1174.6 ± 2 kg/m3. Further, the “vapor or sublimation pressure” value in data set [1] (389.15 K) is listed as 94.7 ± 9.6 kPa. For the same compound, the refractive index in data set [2] (298.15 K) was 1.4358 ± 0.0007.

Values taken from the NIST ThermoML archive (doi:10.1016/j.jct.2004.11.015).
